Data on two substances can be found in PMC11874007, “Switching Roles—Exploring Concentration-Dependent Agonistic versus Antagonistic Behavior of Integrin Ligands” (Journal of Medicinal Chemistry, 2025).

Non-standard residues stand in square brackets, D forms with d. NMeV = CN[C@H](C(=O)O)C(C)C

The target of one test is T1, human αvβ6-integrin (Homo sapiens, UniProt P06756+P18564).
T1 construct: purchased R&D 3817-AV-050
To be noted: previously published values; cited from earlier work.

A further test deals with T2, human αvβ3-integrin (Homo sapiens, UniProt P05106+P06756).
T2 construct: purchased R&D 3050-AV-050
T2 sequence (P06756 31-992 limits assumed): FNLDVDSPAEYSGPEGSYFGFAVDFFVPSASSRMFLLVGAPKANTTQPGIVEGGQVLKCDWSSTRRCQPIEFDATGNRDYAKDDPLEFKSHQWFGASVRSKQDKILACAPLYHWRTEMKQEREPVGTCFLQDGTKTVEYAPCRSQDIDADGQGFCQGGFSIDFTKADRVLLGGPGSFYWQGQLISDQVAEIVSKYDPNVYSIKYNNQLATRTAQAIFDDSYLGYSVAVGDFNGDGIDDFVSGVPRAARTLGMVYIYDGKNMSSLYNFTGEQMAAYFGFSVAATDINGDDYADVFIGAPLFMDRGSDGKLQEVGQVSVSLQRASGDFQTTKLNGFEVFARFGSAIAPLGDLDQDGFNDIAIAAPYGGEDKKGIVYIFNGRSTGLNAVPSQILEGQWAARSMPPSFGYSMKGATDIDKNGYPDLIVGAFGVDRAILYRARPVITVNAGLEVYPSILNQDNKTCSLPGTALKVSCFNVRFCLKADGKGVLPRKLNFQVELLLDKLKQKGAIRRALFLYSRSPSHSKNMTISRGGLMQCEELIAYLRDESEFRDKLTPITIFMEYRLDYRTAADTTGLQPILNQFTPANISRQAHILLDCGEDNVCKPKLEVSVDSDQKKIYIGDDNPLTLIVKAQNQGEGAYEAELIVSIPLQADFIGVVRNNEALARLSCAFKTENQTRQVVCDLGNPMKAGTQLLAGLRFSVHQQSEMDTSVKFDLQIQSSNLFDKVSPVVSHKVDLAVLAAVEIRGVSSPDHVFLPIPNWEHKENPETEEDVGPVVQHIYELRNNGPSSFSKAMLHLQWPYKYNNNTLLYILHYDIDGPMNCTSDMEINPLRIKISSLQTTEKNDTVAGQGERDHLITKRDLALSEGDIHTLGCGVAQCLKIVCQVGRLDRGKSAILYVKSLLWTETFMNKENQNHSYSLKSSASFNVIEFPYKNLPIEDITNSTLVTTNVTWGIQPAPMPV
T2 sequence (P05106 27-718 limits assumed): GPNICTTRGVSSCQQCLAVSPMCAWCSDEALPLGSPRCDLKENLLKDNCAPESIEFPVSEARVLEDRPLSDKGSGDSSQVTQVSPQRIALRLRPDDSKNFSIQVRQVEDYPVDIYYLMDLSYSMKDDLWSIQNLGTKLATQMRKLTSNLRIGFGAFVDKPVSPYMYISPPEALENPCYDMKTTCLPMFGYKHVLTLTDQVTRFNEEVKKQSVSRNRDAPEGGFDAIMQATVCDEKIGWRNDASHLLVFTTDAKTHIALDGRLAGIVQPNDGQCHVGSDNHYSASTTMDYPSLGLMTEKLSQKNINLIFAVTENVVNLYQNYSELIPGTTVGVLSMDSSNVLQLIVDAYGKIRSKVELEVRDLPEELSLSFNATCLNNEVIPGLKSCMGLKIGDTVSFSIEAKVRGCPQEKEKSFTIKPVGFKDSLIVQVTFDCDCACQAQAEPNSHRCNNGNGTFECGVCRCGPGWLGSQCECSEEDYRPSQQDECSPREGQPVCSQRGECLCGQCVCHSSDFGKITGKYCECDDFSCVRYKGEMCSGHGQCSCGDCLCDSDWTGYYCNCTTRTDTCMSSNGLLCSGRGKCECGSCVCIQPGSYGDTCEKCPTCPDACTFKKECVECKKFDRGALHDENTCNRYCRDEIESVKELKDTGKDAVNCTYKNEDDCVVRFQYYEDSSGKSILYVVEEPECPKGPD
To be noted: previously published values; cited from earlier work.

The target of a further test is T3, human α5β1-integrin (Homo sapiens, UniProt P05556+P08648).
T3 construct: purchased R&D 3230-A5-050
T3 sequence (P08648 42-995 limits assumed): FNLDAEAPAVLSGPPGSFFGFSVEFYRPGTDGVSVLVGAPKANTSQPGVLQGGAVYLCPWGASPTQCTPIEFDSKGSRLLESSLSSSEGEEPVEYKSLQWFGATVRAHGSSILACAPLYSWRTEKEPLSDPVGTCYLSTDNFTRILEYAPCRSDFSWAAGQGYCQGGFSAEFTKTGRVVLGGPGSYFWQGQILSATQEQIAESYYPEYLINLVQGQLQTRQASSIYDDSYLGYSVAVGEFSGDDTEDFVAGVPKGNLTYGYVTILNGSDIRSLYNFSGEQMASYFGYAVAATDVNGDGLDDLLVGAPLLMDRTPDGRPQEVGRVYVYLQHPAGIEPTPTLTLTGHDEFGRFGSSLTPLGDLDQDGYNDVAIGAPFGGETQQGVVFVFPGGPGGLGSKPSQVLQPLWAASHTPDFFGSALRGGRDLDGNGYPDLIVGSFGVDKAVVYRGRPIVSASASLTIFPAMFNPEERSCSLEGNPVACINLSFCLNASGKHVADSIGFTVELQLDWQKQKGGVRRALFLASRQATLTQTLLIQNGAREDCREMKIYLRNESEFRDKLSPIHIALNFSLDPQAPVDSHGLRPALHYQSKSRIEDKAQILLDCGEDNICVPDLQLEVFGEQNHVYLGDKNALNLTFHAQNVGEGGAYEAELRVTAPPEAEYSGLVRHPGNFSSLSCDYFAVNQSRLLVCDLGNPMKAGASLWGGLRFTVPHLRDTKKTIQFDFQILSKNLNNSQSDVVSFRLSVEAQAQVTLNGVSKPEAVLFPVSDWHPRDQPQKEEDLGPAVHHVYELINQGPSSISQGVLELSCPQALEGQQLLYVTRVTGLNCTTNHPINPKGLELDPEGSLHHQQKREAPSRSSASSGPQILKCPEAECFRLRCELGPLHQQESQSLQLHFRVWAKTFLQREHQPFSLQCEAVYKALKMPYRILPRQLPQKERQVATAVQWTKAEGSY
T3 sequence (P05556 21-728 limits assumed): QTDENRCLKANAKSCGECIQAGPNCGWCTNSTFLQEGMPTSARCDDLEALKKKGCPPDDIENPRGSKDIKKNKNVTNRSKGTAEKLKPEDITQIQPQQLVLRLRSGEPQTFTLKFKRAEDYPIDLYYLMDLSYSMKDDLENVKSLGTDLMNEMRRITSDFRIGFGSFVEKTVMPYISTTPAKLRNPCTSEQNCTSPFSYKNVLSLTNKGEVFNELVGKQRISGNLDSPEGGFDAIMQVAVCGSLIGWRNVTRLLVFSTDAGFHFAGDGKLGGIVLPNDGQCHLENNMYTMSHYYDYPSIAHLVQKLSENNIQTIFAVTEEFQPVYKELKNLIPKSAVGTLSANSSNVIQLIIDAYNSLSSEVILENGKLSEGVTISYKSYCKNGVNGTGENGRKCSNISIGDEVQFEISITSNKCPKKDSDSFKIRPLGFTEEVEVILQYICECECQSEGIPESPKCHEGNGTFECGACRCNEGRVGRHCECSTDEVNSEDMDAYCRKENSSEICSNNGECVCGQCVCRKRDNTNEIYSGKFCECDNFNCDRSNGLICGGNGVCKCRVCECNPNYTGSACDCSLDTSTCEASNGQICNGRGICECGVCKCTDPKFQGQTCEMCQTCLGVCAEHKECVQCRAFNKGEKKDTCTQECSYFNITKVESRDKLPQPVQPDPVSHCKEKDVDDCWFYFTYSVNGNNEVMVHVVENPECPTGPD
Conditions: previously published values; cited from earlier work.

Another test relates to αvβ3+ M21 cells. In words: Wound scratch cell migration assay, M21 cells. The format is cell-based. The protocol:
(§1) As a biological readout for integrin signaling, we analyzed ligand effects on cell adhesion and migration by wound scratch assays (Figure 10A,B). […] Microscopical images were taken directly after wounding the cell monolayers and then after 9, 24, 48, and 72 h, respectively.
(§2) Figure 10 (A) Effect of integrin ligands on cancer cell migration. […] Microscopical measurements of wound gaps were taken directly after setting the wound scratch and then after 9, 24, 48, and 72 h, respectively. Wound scratch assays were repeated at least three times. The extent of wound gap closure [%]/cell coverage was calculated by a python script utilizing Canny’s Edge Detection algorithm as described under Materials and summarized in the corresponding histograms (see also Scheme S5 in the Supporting Information). (B) Adhesion of M21, OV-MZ-6, and HN cells in the presence of the respective integrin targeting ligand at low (1 nM) and high (1 μM) concentrations. […] Depicted are typical microscopical images of the respective cell monolayers.
(§3) The assays were performed according to a modified protocol as previously published.[94] Cells were cultivated on fibronectin-coated 12-well cell culture plates until cell monolayers reached an approximately 80% confluency. Then, the wound scratch was set utilizing a 200 μL pipet tip. Subsequently, fresh culture medium was added in the absence or presence of L1–L5 (concentration: 1 μM or 1 nM), and microscopical images (Zeiss, Oberkochen, Germany) were taken at two identical positions of the wound gap directly after wounding and then at 9, 24, 48, or 72 h of further cell cultivation. Each wound scratch assay was repeated three times. A custom python script was implemented to analyze wound gap closure over time: after cropping the images, we used the OpenCV[95] implementation of Canny’s Edge Detection Algorithm[96] to ensure reliable measurements even with variable lighting conditions.[97] As a first step, a 5 × 5 Gaussian filter was applied to remove background noise. The smoothened images were then filtered by a Sobel kernel[98] and the magnitude and direction of the intensity gradient of the images calculated. Then, a non-maximum suppression algorithm was applied to identify relevant pixels that presumably contribute to edges. In a final step, threshold hysteresis was utilized to distinguish true edges from variations in intensity or the remaining background noise. The resulting images were then segmented and binarized by use of a grid filter and analyzed with respect to cell-covered area relative to the start image of each series.

The test system of the next test is tumor angiogenesis. To be noted: low dose; cited from earlier work.
The subject of the next test is glioblastoma. Conditions: phase II and III trials; cited from earlier work.
Test [1] concerns FAK, p-FAK, p44/42erk-1/2, p-p44/42erk-1/2 in αvβ3+ M21 cells. In words: Western blot of FAK and p44/42erk-1/2 expression and activation, M21 cells. It is filed as cell-based. As to the method: (§4) Since agonistic ligand performance requires integrin activation and signaling, by Western blot analysis, we studied whether the different ligands alter the expression levels and activation states of FAK and p44/42^(erk-1/2). For this, the respective target integrin-expressing tumor cell types were incubated with the corresponding subtype-selective ligand at a concentration of 1 μM for 24 h (Figure 8). […] Signal intensities of FAK and p44/42^(erk-1/2) expression and activation (p-FAK and p-p44/42^(erk-1/2)) on Western blots were evaluated by densitometry. Data are depicted as GAPDH-normalized fluorescence signal intensities as n-fold, by setting values obtained for the respective untreated cells to “1”. […] MAPK p44/42^(erk-1/2) expression was approximately 2.2-fold augmented, p44/42^(erk-1/2) by approximately 2.5-fold. It also raised activation of p-FAK and p-p44/42^(erk-1/2) by approximately 2.2-fold and 3.1-fold, respectively, in α5β1+ OV-MZ-6 cells. […] Additionally, it raised FAK (approximately 1.7-fold) and p-p44/42^(erk-1/2) (approximately 2.4-fold) in α5β1+ OV-MZ-6 cells.
(§5) Figure 8 Effects of ligands on cellular expression and activation of integrin-related signaling molecules FAK and p44/42^(erk-1/2). […] Signal intensities for FAK and p-FAK, respectively, were evaluated by use of the Bio-Rad Imager Gel Doc XR+ and a ChemiDoc XRS+ Systems and the software Image Lab. Shown are typical representative Western blot images and the corresponding histograms depicting GAPDH-normalized signal intensities as n-fold by setting the values obtained for untreated cells to “1” (drawn as black line). For each cell line, cutouts of identical gels are depicted.
(§6) In order to capture early and transient changes in signaling activation following ligand treatment, we next reduced the observation periods to 5, 30, or 60 min and assessed FAK expression and activation. […] Depicted are typical Western blot images and the corresponding densitometrical evaluations of GAPDH-normalized signal intensities as n-fold, by setting that of the respective untreated cell type to “1” (Figure 9). […]
(§7) The kinases (p-)p44/42^(erk-1/2) and (p-)FAK were detected as previously published.[15],[8] Briefly, cells were grown for 18 h on six-well plates in DMEM (0.45 Mio cells/well). After medium exchange, fresh medium with L1–L5 (concentration: 1.0 μM, 2 mL/well) was added, and cells were incubated for another 24 h at 37 °C. In a second series, cells were incubated with L1–L5 (1 μM or 1 nM) for 5, 30, or 60 min. Thereafter, the cellular proteins were extracted and processed by Western blotting. Proteins were visualized using the Pierce ECL chemiluminescent substrate (Thermo Fisher Scientific). Band signal intensities for (p-)p44/42^(erk-1/2) and (p-)FAK were evaluated using the Bio-Rad Imager Gel Doc XR + and ChemiDoc XRS + Systems and the software Image Lab. Differences in protein loading and blotting efficiency were normalized by reprobing the membranes with a monoclonal antibody directed to GAPDH. Signal intensities for protein bands of interest were normalized to those recorded for GAPDH. Typical Western blot images are depicted together with histograms summarizing the mean values of normalized fluorescence signal intensities as n-fold, by setting those obtained for untreated cells to “1”.

For test [2], the system named is FAK, p-FAK, p44/42erk-1/2, p-p44/42erk-1/2 in α5β1+ OV-MZ-6 cells. In words: Western blot of FAK and p44/42erk-1/2 expression and activation, OV-MZ-6 cells. The format is cell-based. To be noted: 1 μM, 5, 30 or 60 min. As to the method:
as §4, §5, §6, §7
(Immunoblotting shows a protein as a band on a membrane.)

The test system of a further test is α5β1+ OV-MZ-6 cells. Description: Wound scratch cell migration assay, OV-MZ-6 cells. The format is cell-based. Conditions: OV-MZ-6 cells. As to the method: as §1, §2, §3
Scheme S5. Effect of integrin ligands on cancer cell migration (control cells to Fig. 10A in the main manuscript). a) Integrin αvβ3- OV-MZ-6 cells, α5β1- M21 cells, α5β1+ and αvβ3- and […]
mages of wound gaps were taken directly after setting the wound scratch and then after […], respectively. Wound scratch assays were repeated at least 3 times. The extent of wound gap closure [%]/cell coverage was calculated by a python script utilizing Canny’s Edge Detection algorithm11 as described in the Experimental Section and summarized in the corresponding histograms.
(1 picture or pasted object on this page, not shown here)

The subject of another test is M21 cells. In words: Cell adhesion in the presence of ligand, M21 cells. The format is cell-based. Conditions: 1 μM. As to the method:
as §2

T1 sequence (P06756 31-992 limits assumed): as the sequence (P06756 31-992 limits assumed) above
T1 sequence (P18564 22-707 limits assumed): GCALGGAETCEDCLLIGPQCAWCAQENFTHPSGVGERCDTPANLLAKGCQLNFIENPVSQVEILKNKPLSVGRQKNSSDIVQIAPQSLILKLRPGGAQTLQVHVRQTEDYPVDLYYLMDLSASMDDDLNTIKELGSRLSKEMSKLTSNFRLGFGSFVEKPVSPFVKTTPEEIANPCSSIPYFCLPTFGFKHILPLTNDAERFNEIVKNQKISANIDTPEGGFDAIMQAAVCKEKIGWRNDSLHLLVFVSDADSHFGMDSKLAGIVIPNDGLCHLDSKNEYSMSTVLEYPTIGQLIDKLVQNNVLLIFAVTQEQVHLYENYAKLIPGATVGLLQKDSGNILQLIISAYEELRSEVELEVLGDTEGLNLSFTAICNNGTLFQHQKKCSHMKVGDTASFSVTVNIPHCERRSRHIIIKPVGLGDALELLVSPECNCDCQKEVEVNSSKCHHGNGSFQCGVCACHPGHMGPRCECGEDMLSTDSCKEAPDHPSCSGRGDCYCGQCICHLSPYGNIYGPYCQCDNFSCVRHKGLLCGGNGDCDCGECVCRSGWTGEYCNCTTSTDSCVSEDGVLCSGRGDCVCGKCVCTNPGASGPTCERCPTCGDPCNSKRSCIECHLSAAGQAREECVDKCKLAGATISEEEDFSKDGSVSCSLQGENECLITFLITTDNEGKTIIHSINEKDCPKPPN

On to “RTDLDSLRT [linear peptide, internal standard for αvβ6, reference compound]”, for which the IC50 – broadly, the concentration needed to halve the response being measured – in the test with human αvβ6-integrin was 29.5 ± 4.5 nM; in the test with human αvβ3-integrin, more than 1000 nM; in the test with human α5β1-integrin, more than 1000 nM.

“c(RGDf(NMe)V) (cyclo(RGD[dF][NMeV])) [cilengitide (L2), reference compound]”: the “Effect on wound gap closure / cell migration” value in the test on αvβ3+ M21 cells (1 nM) is given as “increased wound gap closure”; in the test with αvβ3+ M21 cells (1 μM), “markedly delaying wound gap closure”; in the test with α5β1+ OV-MZ-6 cells (1 nM), “not effective”. Besides, the “Reduction of wound gap closure” value with αvβ3+ M21 cells (1 μM, after 9 h) was “approximately threefold”. In addition, the “Cell coverage (wound gap closure)” value was “approximately 40%” with αvβ3+ M21 cells (1 μM, within 72 h) and “approximately 60%” in the test with α5β1+ OV-MZ-6 cells (1 μM, within 72 h). The “Effect on tumor angiogenesis” value in the test on tumor angiogenesis is listed as “rather promoted than inhibited tumor angiogenesis”. Also, the Clinical efficacy result in the test on glioblastoma is on record as “poor clinical efficacy”. Further, the “FAK expression versus untreated cells” value is “comparable to or slightly higher than in untreated” in test [1] (1 nM, 5, 30 or 60 min); “comparable to or slightly higher than in untreated” in test [1] (1 μM, 5, 30 or 60 min); “comparable to or slightly higher than in untreated” in test [2]. The “Decrease of p-FAK levels within 60 min” value in test [1] (both concentrations (1 nM, 1 μM)) is “approximately threefold”. Further, in [1] (both concentrations (1 nM, 1 μM), up to 60 min), the “p-FAK levels versus untreated cells” value is listed as “almost comparable to that in untreated M21 cells”. Also, the “Effect on cell adhesion / attachment” value was “abrogating adhesion and spreading” in the test with M21 cells; “performed as inhibitors of cell attachment” with M21 cells (listed as CIL/L2).
